Assays:
Test in all cases: Test D postemergence controlled growth environment test
Assay type in all cases: in vivo
[1] = test system: Russian thistle (Salsola kali)
Description: (§1) Seeds of plant species selected from blackgrass (Alopecurus myosuroides), galium (catchweed bedstraw, Galium aparine), kochia (Kochia scoparia), oilseed rape (Brassica napus), barley, spring (Hordeum vulgare), wheat, spring (Triticum aestivum), oat, wild (Avena fatua), barley, winter (Hordeum vulgare) and wheat, winter (Triticum aestivum) were planted into a silt loam soil and treated preemergence with test chemicals formulated in a non-phytotoxic solvent mixture which included a surfactant.
(§2) At the same time, plants selected from these crop and weed species and also bluegrass (annual bluegrass, Poa annua), canarygrass (littleseed canarygrass, Phalaris minor), chickweed (common chickweed, Stellaria media), bromegrass, downy (downy bromegrass, Bromus tectorum), field poppy (Papaver rhoeas), field violet (Viola arvensis), foxtail, green (Setaria viridis), deadnettle (henbit deadnettle, Lamium amplexicaule), ryegrass, Italian (Lolium multiflorum), lambsquarters (Chenopodium album), pigweed (Amaranthus retroflexus), chamomile (scentless chamomile, Matricaria inodora), Russian thistle (Salsola kali), speedwell (bird's-eye speedwell, Veronica persica), buckwheat, wild (Polygonum convolvulus), mustard, wild (Sinapis arvensis), radish, wild (Raphanus raphanistrum), windgrass (Apera spica-venti), geranium, cutleaf (Geranium dissectum) and Canada thistle (Cirsium arvense) were planted in pots containing Redi-Earth® planting medium (Scotts Company, 14111 Scottslawn Road, Marysville, Ohio 43041) comprising spaghnum peat moss, vermiculite, wetting agent and starter nutrients and treated with postemergence applications of the test chemicals formulated in the same manner. Plants ranged in height from 2 to 18 cm (1- to 4-leaf stage). Treated plants and controls were maintained in a controlled growth environment for 14 to 21 d after which time all species were compared to controls and visually evaluated. Plant response ratings, summarized in Table D, are based on a scale of 0 to 100 where 0 is no effect and 100 is complete control. A dash (-) response means no test result.

[2] = test system: foxtail, green (Setaria viridis)
Description: as §1, §2

[3] = test system: pigweed (Amaranthus retroflexus)
Description: as §1, §2

[4] = test system: Canada thistle (Cirsium arvense)
Description: as §1, §2

[5] = test system: chickweed (common chickweed, Stellaria media)
Description: as §1, §2

[6] = test system: bluegrass (annual bluegrass, Poa annua)
Description: as §1, §2

[7] = test system: geranium, cutleaf (Geranium dissectum)
Description: as §1, §2

[8] = test system: buckwheat, wild (Polygonum convolvulus)
Description: as §1, §2

[9] = test system: lambsquarters (Chenopodium album)
Description: as §1, §2

[10] = test system: canarygrass (littleseed canarygrass, Phalaris minor)
Description: as §1, §2

[11] = test system: mustard, wild (Sinapis arvensis)
Description: as §1, §2

[12] = test system: radish, wild (Raphanus raphanistrum)
Description: as §1, §2

[13] = test system: bromegrass, downy (downy bromegrass, Bromus tectorum)
Description: as §1, §2

[14] = test system: field poppy (Papaver rhoeas)
Description: as §1, §2

[15] = test system: speedwell (bird's-eye speedwell, Veronica persica)
Description: as §1, §2

[16] = test system: ryegrass, Italian (Lolium multiflorum)
Description: as §1, §2

[17] = test system: field violet (Viola arvensis)
Description: as §1, §2

[18] = test system: windgrass (Apera spica-venti)
Description: as §1, §2

[19] = test system: deadnettle (henbit deadnettle, Lamium amplexicaule)
Description: as §1, §2

Cc1ccc2ccc(C)c(-c3c(O)c(Cl)nn(C)c3=O)c2c1 [Cpd. No. 20, 6-chloro-4-(2,7-dimethyl-1-naphthalenyl)-5-hydroxy-2-methyl-3(2H)-pyridazinone]
Plant response rating, Russian Thistle ([1]; 16 g ai/ha): 80 | Plant response rating, Russian Thistle ([1]; 31 g ai/ha): 75 | Plant response rating, Russian Thistle ([1]; 62 g ai/ha): 80 | Plant response rating, Russian Thistle ([1]; 125 g ai/ha): 85 | Plant response rating, Foxtail, Green ([2]; 16 g ai/ha): 85 | Plant response rating, Foxtail, Green ([2]; 31 g ai/ha): 90 | Plant response rating, Foxtail, Green ([2]; 62 g ai/ha): 95 | Plant response rating, Foxtail, Green ([2]; 125 g ai/ha): 98 | Plant response rating, Pigweed ([3]; 16 g ai/ha): 98 | Plant response rating, Pigweed ([3]; 31 g ai/ha): 98 | Plant response rating, Pigweed ([3]; 62 g ai/ha): 100 | Plant response rating, Pigweed ([3]; 125 g ai/ha): 100 | Plant response rating, Canada Thistle ([4]; 16 g ai/ha): 75 | Plant response rating, Canada Thistle ([4]; 31 g ai/ha): 85 | Plant response rating, Canada Thistle ([4]; 62 g ai/ha): 95 | Plant response rating, Canada Thistle ([4]; 125 g ai/ha): 95 | Plant response rating, Chickweed ([5]; 16 g ai/ha): 99 | Plant response rating, Chickweed ([5]; 31 g ai/ha): 99 | Plant response rating, Chickweed ([5]; 62 g ai/ha): 100 | Plant response rating, Chickweed ([5]; 125 g ai/ha): 100 | Plant response rating, Bluegrass ([6]; 16 g ai/ha): 0 | Plant response rating, Bluegrass ([6]; 31 g ai/ha): 5 | Plant response rating, Bluegrass ([6]; 62 g ai/ha): 5 | Plant response rating, Bluegrass ([6]; 125 g ai/ha): 10 | Plant response rating, Geranium, Cutleaf ([7]; 16 g ai/ha): 65 | Plant response rating, Geranium, Cutleaf ([7]; 31 g ai/ha): 75 | Plant response rating, Geranium, Cutleaf ([7]; 62 g ai/ha): 80 | Plant response rating, Geranium, Cutleaf ([7]; 125 g ai/ha): 85 | Plant response rating, Buckwheat, Wild ([8]; 16 g ai/ha): 100 | Plant response rating, Buckwheat, Wild ([8]; 31 g ai/ha): 98 | Plant response rating, Buckwheat, Wild ([8]; 62 g ai/ha): 99 | Plant response rating, Buckwheat, Wild ([8]; 125 g ai/ha): 100 | Plant response rating, Lambsquarters ([9]; 16 g ai/ha): 90 | Plant response rating, Lambsquarters ([9]; 31 g ai/ha): 95 | Plant response rating, Lambsquarters ([9]; 62 g ai/ha): 90 | Plant response rating, Lambsquarters ([9]; 125 g ai/ha): 98 | Plant response rating, Canarygrass ([10]; 16 g ai/ha): 10 | Plant response rating, Canarygrass ([10]; 31 g ai/ha): 15 | Plant response rating, Canarygrass ([10]; 62 g ai/ha): 20 | Plant response rating, Canarygrass ([10]; 125 g ai/ha): 35 | Plant response rating, Mustard, Wild ([11]; 16 g ai/ha): 20 | Plant response rating, Mustard, Wild ([11]; 31 g ai/ha): 25 | Plant response rating, Mustard, Wild ([11]; 62 g ai/ha): 30 | Plant response rating, Mustard, Wild ([11]; 125 g ai/ha): 60 | Plant response rating, Radish, Wild ([12]; 16 g ai/ha): 0 | Plant response rating, Radish, Wild ([12]; 31 g ai/ha): 0 | Plant response rating, Radish, Wild ([12]; 62 g ai/ha): 15 | Plant response rating, Radish, Wild ([12]; 125 g ai/ha): 25 | Plant response rating, Bromegrass, Downy ([13]; 16 g ai/ha): 0 | Plant response rating, Bromegrass, Downy ([13]; 31 g ai/ha): 5 | Plant response rating, Bromegrass, Downy ([13]; 62 g ai/ha): 10 | Plant response rating, Bromegrass, Downy ([13]; 125 g ai/ha): 25 | Plant response rating, Field Poppy ([14]; 16 g ai/ha): 80 | Plant response rating, Field Poppy ([14]; 31 g ai/ha): 85 | Plant response rating, Field Poppy ([14]; 62 g ai/ha): 100 | Plant response rating, Field Poppy ([14]; 125 g ai/ha): 100 | Plant response rating, Speedwell ([15]; 16 g ai/ha): 50 | Plant response rating, Speedwell ([15]; 31 g ai/ha): 60 | Plant response rating, Speedwell ([15]; 62 g ai/ha): 80 | Plant response rating, Speedwell ([15]; 125 g ai/ha): 85 | Plant response rating, Ryegrass, Italian ([16]; 16 g ai/ha): 65 | Plant response rating, Ryegrass, Italian ([16]; 31 g ai/ha): 75 | Plant response rating, Ryegrass, Italian ([16]; 62 g ai/ha): 80 | Plant response rating, Ryegrass, Italian ([16]; 125 g ai/ha): 90 | Plant response rating, Field Violet ([17]; 16 g ai/ha): 80 | Plant response rating, Field Violet ([17]; 31 g ai/ha): 80 | Plant response rating, Field Violet ([17]; 62 g ai/ha): 95 | Plant response rating, Field Violet ([17]; 125 g ai/ha): 95 | Plant response rating, Windgrass ([18]; 16 g ai/ha): 15 | Plant response rating, Windgrass ([18]; 31 g ai/ha): 25 | Plant response rating, Windgrass ([18]; 62 g ai/ha): 50 | Plant response rating, Windgrass ([18]; 125 g ai/ha): 75 | Plant response rating, Deadnettle ([19]; 16 g ai/ha): 35 | Plant response rating, Deadnettle ([19]; 31 g ai/ha): 80 | Plant response rating, Deadnettle ([19]; 62 g ai/ha): 85 | Plant response rating, Deadnettle ([19]; 125 g ai/ha): 95
